The values that follow are results of earlier work, collected in US8197851B2, “Carotenoid composition and method for preparation thereof” (priority 2004, dated 2012).

Each structure is given as a SMILES string.

Data set [1] has as its system natural killer cell (NK) activity. The settings on record: elderly men.
In data set [2] the test system is human epidermis (ex vivo). The settings on record: topical.
For data set [3], the system named is mouse epidermis (in vivo). The settings on record: topical.
The test system of data set [4] is cell surface molecules that initiate immune response. The settings on record: human trials.
The subject of data set [5] is UV light-suppressed immune function (DTH). The settings on record: young and elderly men.
Data set [6] deals with Gap Junctional Communication (GJC). The settings on record: independent of Vitamin A activity or antioxidant actions.
In data set [7] the test system is macular degeneration changes. The settings on record: 80 mg, versus placebo.
The conditions of data set [8]: levels as high as 800 mg.

In the case of `CC1=C(/C=C/C(C)=C/C=C/C(C)=C/C=C/C=C(C)/C=C/C=C(C)/C=C/C2=C(C)CCCC2(C)C)C(C)(C)CCC1` [beta-carotene], the “age related decline in natural killer cell (NK) activity” value in data set [1] is “Prevented age related decline in natural killer cell (NK) activity”. In addition, the “increase of epidermal retinyl esters” value in data set [2] is reported as 10 fold; in data set [3] it was 3 fold. Further, in data set [4], the “expression of cell surface molecules that initiate immune response” value was “stimulated expression of cell surface molecules that initiate immune response”. Also, the “UV light-suppressed immune function (DTH)” value in data set [5] is “Prevented UV light-suppressed immune function (DTH)”. The “increase of GJC” value in data set [6] was “most potent in increasing GJC”.
Regarding `[Zn]` [zinc], the “retarding macular degeneration changes” value in data set [7] is “significantly better than placebo”.
`CC(=O)Oc1c(C)c(C)c2c(c1C)CC[C@@](C)(CCC[C@H](C)CCC[C@H](C)CCCC(C)C)O2` (racemic) [dl-alpha tocopheryl acetate]: the adverse effects entry in data set [8] is “No adverse effects”.
